# Test system: HIV-1
# Assay: Trough LEN concentration associated with antiviral activity (inhibitory quotient-4)
# Conditions: IQ4 threshold / efficacy target
# Description: Lenacapavir (LEN) is currently approved for the treatment of multidrug-resistant HIV-1 infection in combination with other antiretrovirals for heavily treatment-experienced (HTE) individuals. […] Given the importance of oral loading doses in achieving and maintaining concentrations >IQ4, options to make up for missed oral loading doses were considered. A population-pharmacokinetic (PopPK) model was utilized to simulate various dosing scenarios to guide missed oral loading-dose recommendations for the HTE population.
structure (smiles),measurement,value
"CC(C)(C#Cc1ccc(-c2ccc(Cl)c3c(NS(C)(=O)=O)nn(CC(F)(F)F)c23)c([C@H](Cc2cc(F)cc(F)c2)NC(=O)Cn2nc(C(F)(F)F)c3c2C(F)(F)[C@@H]2C[C@H]32)n1)S(C)(=O)=O [LEN, N-((S)-1-(3-(4-chloro-3-(methylsulfonamido)-1-(2,2,2-trifluoroethyl)-1H-indazol-7-yl)-6-(3-methyl-3-(methylsulfonyl)but-1-yn-1-yl)pyridin-2-yl)-2-(3,5-difluorophenyl)ethyl)-2-((3bS,4aR)-5,5-difluoro-3-(trifluoromethyl)-3b,4,4a,5-tetrahydro-1H-cyclopropa [3,4]cyclopenta [1,2-c]pyrazol-1-yl) acetamide]",mean trough LEN concentration associated with high antiviral activity (inhibitory quotient-4 [IQ4]),15.5 ng/mL

# Reference: patent publication US20250090513A1, “DOSING REGIMEN OF HIV CAPSID INHIBITOR” (Gilead Sciences, Inc., priority 2023, published 2025)
